Experiments:
transcription factor Sp1 = experiment: Sp1-luc luciferase activity assay in transfected LNCaP AD cells; format: cell-based, human; conditions: 24 hrs
From the text: The Sp1-luc and mtSp1-luc contain three tandem repeats of consensus Sp1 sites driving the luciferase gene and its mutant. […] Effectene transfection reagent and luciferase assay kit were acquired from Qiagen (Valencia, Calif., USA) and Promega (Madison, Wis., USA). Reagents for protein electrophoresis were purchased from Bio-Rad company (USA). The other chemicals were purchased from Sigma (St. Louis, Mo.) otherwise as indicated. […] (Gao, M., Ossowski, L., and Ferrari, A. C. Activation of Rb and decline in androgen receptor protein precede retinoic acid-induced apoptosis in androgen-dependent LNCaP cells and their androgen-independent derivative. J Cell Physiol, 179: 336-346, 1999). The AD and AI cells were maintained in RPMI-1640 with 10% fetal bovine serum (FBS) and charcoal stripped fetal bovine serum, penicillin-streptomycin for incubation at 5% CO2 and 37° C. respectively. […] After incubation for 24 hrs at 5% CO2 and 37° C., the cells were transfected with 1 μg/dish of SP1-luciferase gene (Sp1-luc), or its mutant mtSp1-luc using Effectene (Qiagen, Valencia, Calif.) as the transfection reagent. […] The cells were collected, washed, lysed, and the lysates were used for luciferase activity assay using Promega luciferase assay system.

BPH = experiment: Therapeutic effects on BPH: Test One (castrated rats, testosterone propionate); format: in vivo, SD rats; conditions: for Average Weight of Prostate: one month
Protocol: Sixty male SD rats were randomly divided into 6 groups, ten each. The animals were anesthetized using ketamine and castrated by removing testis under sterile conditions. After the surgery, the penicillin was injected to prevent the animals from infection. One week later, the testosterone propionate was injected subcutaneously at dose of 1 mg/rat for a month, once a day. Group 1 was served as a negative control group, and the animals of group 1 were given saline orally without any active pharmaceutical ingredient for a month beginning on the same day the testosterone propionate was injected. Group 2 was served as positive control group in which animals were given estradiol subcutaneously at a dose of 0.1 mg/rat for a month beginning on the same day the testosterone propionate was injected. Groups from 3 to 6 was served as drug treatment groups in which animals were given tested articles on the same day the testosterone propionate was injected.
Twenty-four hrs after the last dosage, the animals were euthanized and weighed. Volume and weight of prostate were measured. The averages of volume/weight and organ coefficient (average weight of prostate/average of body weight) were calculated, and statistical analysis performed (t test).

LNCaP AD = experiment: MTT growth inhibition, hormone dependent LNCaP AD; format: cell-based; conditions: Homo sapiens, LNCaP, 168 h, read-out: IC50, growth inhibition
From the text: The human prostate cancer cell line LNCaP AD was purchased from the American Type Culture Collection. LNCaP AI cell line was derived from LNCaP cells using a method described previously by Gao et al. (Gao, M., Ossowski, L., and Ferrari, A. C. Activation of Rb and decline in androgen receptor protein precede retinoic acid-induced apoptosis in androgen-dependent LNCaP cells and their androgen-independent derivative. J Cell Physiol, 179: 336-346, 1999). The AD and AI cells were maintained in RPMI-1640 with 10% fetal bovine serum (FBS) and charcoal stripped fetal bovine serum, penicillin-streptomycin for incubation at 5% CO2 and 37° C. respectively.
MTT: MTT and SRB method were used to determine the effects of various isothiocyanates on cell growth as described previously (Kreis, Budman et al, 1997). Briefly, human prostate cancer cell line LNCaP grown exponentially were aliquoted into 96-well plates at a density of 2500 cells/200 μl per well. Twenty-four hrs after the incubation, the cells were exposed for seven days to serial dilutions of indicated isothiocyanate or paclitaxel. […] The absorbance was measured at wavelength 540 nm. The percent of cell survival (T/C%) were calculated based on the results of test groups to that of the control group. […]

[1] = Stability testing of isothiocyanate compositions (60° C., HPLC); format: physicochemical; conditions: sealed vials, day 10, HPLC
Protocol: Suitable amount of API (isothiocyanates, as control) and compositions were placed into clean vials, and sealed with rubber stoppers plus aluminum caps. All samples were stored at 60° C., and then assayed by a validated HPLC method at time day 0, day 5, and day 10.

[2] = In vitro dissolution (paddle method, HPLC); format: physicochemical; conditions: 500 ml water, 37° C., 45 min, paddle 200 r/min
Protocol: Dissolution Measurement: Dissolution rates of the compositions were measured according to the procedures described in the Chinese Pharmacopeia 2005, Appendix XC, Method 2: Paddle Determination. Briefly, samples are added into 500 ml of de-aired, and deionized water which is kept at 37±0.5° C. for 45 min while the paddle rotates at 200 r/min. Take samples and let the sample be passed through the 0.8 μm filter membrane, and analyzed by HPLC. The dissolution rate was then calculated.

Compound: S=C=NCCc1ccccc1 [PEITC, phenethyl isothiocyanate]
- luciferase activity of Sp1-luc transfected gene (transcription factor Sp1): significantly decreased
- Average Weight of Prostate (BPH; aqueous base formulation (Example 13-11), 1 mg/kg gavage): 0.75 g
- Average Weight of Prostate (BPH; aqueous base formulation (Example 13-11), 4 mg/kg gavage): 0.83 g
- Organ Coefficient (BPH; aqueous base formulation, 1 mg/kg): 0.21%
- Organ Coefficient (BPH; aqueous base formulation, 4 mg/kg): 0.23%
- Average Weight of Prostate (BPH; oil base formulation (Example 13-3), 1 mg/kg gavage): 0.91 g
- Average Weight of Prostate (BPH; oil base formulation (Example 13-3), 4 mg/kg gavage): 0.79 g
- Organ Coefficient (BPH; oil base formulation, 1 mg/kg): 0.25%
- Organ Coefficient (BPH; oil base formulation, 4 mg/kg): 0.23%
- IC50 (LNCaP AD): 600 nM
- API % under 60° C. for 10 days [1]: 95.2%
- Dissolution Rate [2]: 0%

Source: patent publication US8410170B2, “Use of isothiocyanates compounds in treating prostatic diseases and skin cancer” (Wuxi JC Pharmaceutical Technology Co., Ltd., priority 2005, dated 2013)
